According to PMC6941172 (Journal of medicinal chemistry, 2018):
Entries after “also recorded” stand apart in the source; their conditions may differ.

How the values were obtained:
DOR = DOR (Homo sapiens, UniProt P41143); experiment: PDSP radioligand displacement, [3H]DADLE; type: binding; details: PDSP primary assay
GABAAR α6β3γ2 subtype = GABAAR α6β3γ2 subtype (Rattus norvegicus, UniProt P18508+P30191+P63079); experiment: Electrophysiological assay in Xenopus oocytes, modulation of GABA EC3 currents; type: cell-based
Dopamine D5 = Dopamine D5 (Homo sapiens, UniProt P21918); experiment: PDSP radioligand displacement, [3H]SCH233930; type: binding; details: [3H]SCH233930, PDSP primary assay
C57BL/6 mice = experiment: Spontaneous locomotor activity assay in mice; type: in vivo, mouse; details: for Hyperlocomotor action: IP 3, 10 and 30 mg/kg
HEPG2 (liver) cells = experiment: Cytotoxicity assay; type: cell-based, human; details: HEPG2, up to 400 μM, 48 hours
[1] = Microsomal stability assay, mouse liver microsomes; type: in vitro ADME; details: for Increase in half-life (MLM) relative to parent ligand: vs respective parent (8a, 8i, 8n or 8k)
HEK293 (kidney) cells = experiment: Cytotoxicity assay; type: cell-based, human; details: HEK293, up to 400 μM, 48 hours
[2] = Microsomal stability assay, human liver microsomes; type: in vitro ADME; details: for Increase in half-life (HLM) relative to parent ligand: vs respective parent (8a, 8i, 8n or 8k)
adult male Wistar rats = experiment: Spontaneous locomotor activity assay in rats; type: in vivo, rat
[3] = Pharmacokinetic study, IP 10 mg/kg, plasma and brain; type: in vivo, rat; details: rats
rats = experiment: Rotarod pilot experiment in rats; type: in vivo, rat
[4] = tested on: BZP rat brain site of GABAARs; experiment: PDSP radioligand displacement, [3H]flunitrazepam; type: binding; details: [3H]flunitrazepam displacement
[5] = tested on: Female Swiss Webster mice; details: 5 mg/kg positive control
Solubility assay = type: physicochemical; details: vs 8k, neutral and acidic aqueous media
α1-5β3γ2 receptors = experiment: Electrophysiological assay in Xenopus oocytes, other receptor subtypes; type: cell-based; details: two-point experiments

Chain of GABAAR α6β3γ2 subtype (P30191 20-453): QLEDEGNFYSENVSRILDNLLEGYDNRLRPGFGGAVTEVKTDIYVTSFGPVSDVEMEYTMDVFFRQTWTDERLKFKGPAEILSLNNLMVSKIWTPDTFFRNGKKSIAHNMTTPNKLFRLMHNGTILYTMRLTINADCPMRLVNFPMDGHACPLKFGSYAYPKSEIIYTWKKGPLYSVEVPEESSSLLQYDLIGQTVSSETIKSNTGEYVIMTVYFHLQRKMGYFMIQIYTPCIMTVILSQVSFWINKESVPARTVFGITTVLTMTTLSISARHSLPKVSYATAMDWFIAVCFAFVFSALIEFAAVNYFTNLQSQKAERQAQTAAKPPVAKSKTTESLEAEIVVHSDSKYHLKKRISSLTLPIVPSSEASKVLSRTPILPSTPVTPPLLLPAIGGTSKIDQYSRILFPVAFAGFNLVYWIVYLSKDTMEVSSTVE
Chain of GABAAR α6β3γ2 subtype (P63079 26-473): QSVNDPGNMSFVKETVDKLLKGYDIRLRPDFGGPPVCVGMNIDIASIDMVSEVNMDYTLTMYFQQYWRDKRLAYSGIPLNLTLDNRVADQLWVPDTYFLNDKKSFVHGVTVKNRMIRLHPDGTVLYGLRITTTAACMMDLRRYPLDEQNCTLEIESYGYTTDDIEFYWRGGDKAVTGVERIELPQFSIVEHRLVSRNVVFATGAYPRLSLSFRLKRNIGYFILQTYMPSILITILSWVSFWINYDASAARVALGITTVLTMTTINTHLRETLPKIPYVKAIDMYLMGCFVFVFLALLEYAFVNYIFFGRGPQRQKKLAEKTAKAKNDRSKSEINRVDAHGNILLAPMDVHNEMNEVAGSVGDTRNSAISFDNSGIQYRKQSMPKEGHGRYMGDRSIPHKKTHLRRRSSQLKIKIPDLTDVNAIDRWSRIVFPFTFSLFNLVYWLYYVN
Chain of GABAAR α6β3γ2 subtype (P18508 39-466): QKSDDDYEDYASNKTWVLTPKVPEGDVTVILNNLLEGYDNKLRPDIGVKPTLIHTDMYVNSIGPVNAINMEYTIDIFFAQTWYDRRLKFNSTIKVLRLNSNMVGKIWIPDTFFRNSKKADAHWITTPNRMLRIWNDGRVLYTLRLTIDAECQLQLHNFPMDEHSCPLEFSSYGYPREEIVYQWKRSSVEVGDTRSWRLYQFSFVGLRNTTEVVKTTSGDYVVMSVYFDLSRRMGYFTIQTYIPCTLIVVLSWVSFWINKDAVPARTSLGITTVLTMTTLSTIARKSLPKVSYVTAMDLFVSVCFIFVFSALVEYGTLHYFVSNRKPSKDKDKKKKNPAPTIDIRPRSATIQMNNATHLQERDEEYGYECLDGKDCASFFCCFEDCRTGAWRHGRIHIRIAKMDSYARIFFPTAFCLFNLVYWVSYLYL
Chain of Dopamine D5 (P21918 whole entry): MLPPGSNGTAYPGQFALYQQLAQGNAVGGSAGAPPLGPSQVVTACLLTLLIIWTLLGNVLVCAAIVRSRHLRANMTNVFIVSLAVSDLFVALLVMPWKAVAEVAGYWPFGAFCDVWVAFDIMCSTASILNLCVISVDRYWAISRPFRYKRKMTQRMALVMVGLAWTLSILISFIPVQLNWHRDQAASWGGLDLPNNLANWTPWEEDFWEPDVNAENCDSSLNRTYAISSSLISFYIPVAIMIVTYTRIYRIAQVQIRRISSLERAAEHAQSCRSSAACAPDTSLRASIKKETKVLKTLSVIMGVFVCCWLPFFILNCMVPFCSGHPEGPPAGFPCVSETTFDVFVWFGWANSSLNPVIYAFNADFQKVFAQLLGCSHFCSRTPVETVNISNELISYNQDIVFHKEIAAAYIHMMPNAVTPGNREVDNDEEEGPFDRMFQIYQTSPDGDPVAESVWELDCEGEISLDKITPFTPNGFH
Chain of DOR (P41143 whole entry): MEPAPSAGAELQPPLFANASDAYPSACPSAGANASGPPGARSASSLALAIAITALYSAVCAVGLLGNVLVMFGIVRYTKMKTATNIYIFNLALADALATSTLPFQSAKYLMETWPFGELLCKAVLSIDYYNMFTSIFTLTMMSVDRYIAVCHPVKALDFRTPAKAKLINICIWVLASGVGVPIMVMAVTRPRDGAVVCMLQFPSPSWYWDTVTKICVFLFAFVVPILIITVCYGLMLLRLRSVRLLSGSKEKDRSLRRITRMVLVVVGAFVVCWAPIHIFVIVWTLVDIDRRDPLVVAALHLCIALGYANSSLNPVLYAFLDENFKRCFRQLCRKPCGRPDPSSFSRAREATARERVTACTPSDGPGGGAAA

[2H]C([2H])([2H])Oc1ccc(-n2nc3c4cc(Cl)ccc4[nH]cc-3c2=O)cc1 [Compound 8l, 8-Chloro-2-(4-methoxy-d3-phenyl)-2,5-dihydro-3H-pyrazolo[4,3-c]quinolin-3-one]
Interaction with DOR (DOR): weakly interacted

COc1ccc(-n2nc3c4cnc(OC)cc4[nH]cc-3c2=O)cc1 [Compound 13i, 7-Methoxy-2-(4-methoxyphenyl)-2,5-dihydro-3H-pyrazolo[4,3-c][1,6]naphthyridin-3-one]
Efficacy / activity at the α6β3γ2 subtype (in words) (GABAAR α6β3γ2 subtype): retained some efficacy

COc1ccc(-n2nc3c4ccc(OC)cc4[nH]cc-3c2=O)cc1 [Compound 8a, 7-Methoxy-2-(4-methoxyphenyl)-2,5-dihydro-3H-pyrazolo[4,3-c]quinolin-3-one]
Activity at Dopamine D5 (Dopamine D5): showed activity | Hyperlocomotor action (C57BL/6 mice): induced a hyperlocomotor action

COc1ccc(-n2nc3c4ccc(Br)cc4[nH]cc-3c2=O)cn1 [Compound 13g, 7-Bromo-2-(6-methoxypyridin-3-yl)-2,5-dihydro-3H-pyrazolo[4,3-c]quinolin-3-one]
Cytotoxicity / cell viability (HEPG2 (liver) cells): no impact of cell viability | Increase in half-life (MLM) relative to parent ligand [1]: seven-fold | Cytotoxicity / cell viability (HEK293 (kidney) cells): no impact of cell viability | Increase in half-life (HLM) relative to parent ligand [2]: seven-fold

[2H]C([2H])([2H])Oc1ccc(-n2nc3c4cc(Cl)ccc4[nH]cc-3c2=O)cn1 [Compound 13f, 8-Chloro-2-(6-methoxy-d3-pyridin-3-yl)-2,5-dihydro-3H-pyrazolo[4,3-c]quinolin-3-one]
Increased half-life (HLM) ([2]; vs OCH3 N-hetero ligand 13e): 40% | Efficacy / activity at the α6β3γ2 subtype (in words) (GABAAR α6β3γ2 subtype): much poorer efficacy

[2H]C([2H])([2H])Oc1ccc(-n2nc3c4ccc(OC)cc4[nH]cc-3c2=O)cc1 [Compound 8b, 7-Methoxy-2-(4-methoxy-d3-phenyl)-2,5-dihydro-3H-pyrazolo[4,3-c]quinolin-3-one]
Hyperlocomotor response (adult male Wistar rats; IP 10 mg/kg, first experiment (Figure 11A)): induced a hyperlocomotor response | Hyperlocomotor response (adult male Wistar rats; IP 10 mg/kg, repeated experiment (Figure 11C)): did not reach statistical significance | Hyperlocomotor response (adult male Wistar rats; IP 3 and 10 mg/kg, third experiment (Figure 11E)): present | Increase in half-life (MLM) relative to parent ligand [1]: three-fold | Increase in half-life (HLM) relative to parent ligand [2]: 2.5 fold | Hyperlocomotor effect in combination with diazepam (C57BL/6 mice; IP 10 mg/kg with diazepam 3 mg/kg IP): present | Hyperlocomotor action (C57BL/6 mice): induced a hyperlocomotor action | Brain concentration (Cmax) compared with parent 8a [3]: almost two-fold increase | Free (unbound) brain concentrations [3]: ~100 nM | Motor coordination and balance on the rotarod (rats; IP doses as high as 55 mg/kg): retained

[2H]C([2H])([2H])Oc1ccccc1-n1nc2c3cc(Cl)ccc3[nH]cc-2c1=O [Compound 8m, 8-Chloro-2-(2-methoxy-d3-phenyl)-2,5-dihydro-3H-pyrazolo[4,3-c]quinolin-3-one]
Cytotoxicity / cell viability (HEPG2 (liver) cells): no impact on cytotoxicity | Cytotoxicity / cell viability (HEK293 (kidney) cells): no impact on cytotoxicity | Binding to the BZP rat brain site (in words) [4]: reasonable binding affinity | Efficacy / activity at the α6β3γ2 subtype (in words) (GABAAR α6β3γ2 subtype): completely inactive; also recorded: no activity; also recorded: almost no efficacy | Motor coordination and balance on the rotarod (rats; IP doses as high as 60 mg/kg): retained

[2H]C([2H])([2H])Oc1ccccc1-n1nc2c3ccc(Br)cc3[nH]cc-2c1=O [Compound 8q, 7-Bromo-2-(2-methoxy-d3-phenyl)-2,5-dihydro-3H-pyrazolo[4,3-c]quinolin-3-one]
Binding to the BZP rat brain site (in words) [4]: significantly less binding; also recorded: significantly reduced affinity

[2H]C([2H])([2H])Oc1ccc(-n2nc3c4ccc(OC)cc4[nH]cc-3c2=O)cn1 [Compound 13b, 7-Methoxy-2-(6-methoxy-d3-pyridin-3-yl)-2,5-dihydro-3H-pyrazolo[4,3-c]quinolin-3-one]
Efficacy / activity at the α6β3γ2 subtype (in words) (GABAAR α6β3γ2 subtype): retained some efficacy

[2H]C([2H])([2H])Oc1ccc2c3nn(-c4ccc(OC)cc4)c(=O)c-3c[nH]c2c1 [Compound 8c, 7-Methoxy-d3-2-(4-methoxyphenyl)-2,5-dihydro-3H-pyrazolo[4,3-c]quinolin-3-one]
Increase in half-life (MLM) relative to parent ligand [1]: four-fold | Increase in half-life (HLM) relative to parent ligand [2]: three-fold | Brain concentration (Cmax) compared with parent 8a [3]: almost two-fold increase

[2H]C([2H])([2H])Oc1ccc(-n2nc3c4ccc(Br)cc4[nH]cc-3c2=O)cc1 [Compound 8o, 7-Bromo-2-(4-methoxy-d3-phenyl)-2,5-dihydro-3H-pyrazolo[4,3-c]quinolin-3-one]
Increase in MLM-mediated half-life ([1]; vs parent 8n): 20% | Increase in half-life (HLM) relative to parent ligand [2]: two-fold | Efficacy / activity at the α6β3γ2 subtype (in words) (GABAAR α6β3γ2 subtype): efficacies comparable to 8n

[2H]C([2H])([2H])Oc1cccc(-n2nc3c4ccc(OC([2H])([2H])[2H])cc4[nH]cc-3c2=O)c1 [Compound 8e, 7-Methoxy-d3-2-(3-methoxy-d3-phenyl)-2,5-dihydro-3H-pyrazolo[4,3-c]quinolin-3-one]
Cytotoxicity / cell viability (HEPG2 (liver) cells): no impact on cytotoxicity | Cytotoxicity / cell viability (HEK293 (kidney) cells): no impact on cytotoxicity

CN1C(=O)CN=C(c2ccccc2)c2cc(Cl)ccc21 [diazepam]
Rotarod motor impairment [5]: greatest impairment of sensorimotor steadiness at 10 minutes

[2H]C([2H])([2H])Oc1cccc(-n2nc3c4cc(Cl)ccc4[nH]cc-3c2=O)c1 [Compound 8j, 8-Chloro-2-(3-methoxy-d3-phenyl)-2,5-dihydro-3H-pyrazolo[4,3-c]quinolin-3-one]
Cytotoxicity / cell viability (HEPG2 (liver) cells): no impact on cytotoxicity | Increase in half-life (MLM) relative to parent ligand [1]: two-fold | Cytotoxicity / cell viability (HEK293 (kidney) cells): no impact on cytotoxicity | Increase in half-life (HLM) relative to parent ligand [2]: three-fold | Efficacy / activity at the α6β3γ2 subtype (in words) (GABAAR α6β3γ2 subtype): poorer efficacy

COc1ccc(-n2nc3c4cc(Cl)ccc4[nH]cc-3c2=O)cn1 [Compound 13e, 8-Chloro-2-(6-methoxypyridin-3-yl)-2,5-dihydro-3H-pyrazolo[4,3-c]quinolin-3-one]
Cytotoxicity / cell viability (HEPG2 (liver) cells): no impact of cell viability | Increase in half-life (MLM) relative to parent ligand [1]: two-fold | Cytotoxicity / cell viability (HEK293 (kidney) cells): no impact of cell viability | Increase in half-life (HLM) relative to parent ligand [2]: nearly four-fold | Decrease in water solubility (Solubility assay): ~10 fold

[2H]C([2H])([2H])Oc1ccc(-n2nc3c4ccc(Br)cc4[nH]cc-3c2=O)cn1 [Compound 13h, 7-Bromo-2-(6-methoxy-d3-pyridin-3-yl)-2,5-dihydro-3H-pyrazolo[4,3-c]quinolin-3-one]
Increase in stability in MLM ([1]; vs 8o): 30 fold | Increased stability (MLM half-life) ([1]; vs OCH3 N-hetero ligand 13g): six-fold | Increase in metabolic stability in HLM ([2]; vs 8o): 11 fold | Increased stability (HLM half-life) ([2]; vs OCH3 N-hetero ligand 13g): three-fold | Efficacy / activity at the α6β3γ2 subtype (in words) (GABAAR α6β3γ2 subtype): retained some efficacy; also recorded: efficacies comparable to 8n

[2H]C([2H])([2H])Oc1ccccc1-n1nc2c3ccc(OC)cc3[nH]cc-2c1=O [Compound 8h, 7-Methoxy-2-(2-methoxy-d3-phenyl)-2,5-dihydro-3H-pyrazolo[4,3-c]quinolin-3-one]
Binding to the BZP rat brain site (in words) [4]: significantly less binding; also recorded: significantly reduced affinity

[2H]C([2H])([2H])Oc1ccc2c3nn(-c4ccccc4OC([2H])([2H])[2H])c(=O)c-3c[nH]c2c1 [Compound 8f, 7-Methoxy-d3-2-(2-methoxy-d3-phenyl)-2,5-dihydro-3H-pyrazolo[4,3-c]quinolin-3-one]
Cytotoxicity / cell viability (HEPG2 (liver) cells): no impact on cytotoxicity | Cytotoxicity / cell viability (HEK293 (kidney) cells): no impact on cytotoxicity

[2H]C([2H])([2H])Oc1ccc2c3nn(-c4ccc(OC)nc4)c(=O)c-3c[nH]c2c1 [Compound 13c, 7-Methoxy-d3-2-(6-methoxypyridin-3-yl)-2,5-dihydro-3H-pyrazolo[4,3-c]quinolin-3-one]
Cytotoxicity / cell viability (HEPG2 (liver) cells): no impact of cell viability | Cytotoxicity / cell viability (HEK293 (kidney) cells): no impact of cell viability | Efficacy / activity at the α6β3γ2 subtype (in words) (GABAAR α6β3γ2 subtype): retained some efficacy | Brain AUC0-12 as % of that obtained with 8b [3]: 45% | Brain AUC0-12 as % of that obtained with 8c [3]: 36% | Brain AUC0-12 as % of that obtained with 8d [3]: 55% | Brain concentration (Cmax) compared with parent 8a [3]: considerably less | Activity at α1-5β3γ2 receptors (α1-5β3γ2 receptors): lack of activity

[2H]C([2H])([2H])Oc1ccc(-n2nc3c4ccc(OC([2H])([2H])[2H])cc4[nH]cc-3c2=O)cc1 [Compound 8d, 7-Methoxy-d3-2-(4-methoxy-d3-phenyl)-2,5-dihydro-3H-pyrazolo[4,3-c]quinolin-3-one]
Brain concentration (Cmax) compared with parent 8a [3]: almost two-fold increase
